One assay has as its target T1, NUAK2 (Homo sapiens, UniProt Q9H093).
T1 sequence (Q9H093 1-628): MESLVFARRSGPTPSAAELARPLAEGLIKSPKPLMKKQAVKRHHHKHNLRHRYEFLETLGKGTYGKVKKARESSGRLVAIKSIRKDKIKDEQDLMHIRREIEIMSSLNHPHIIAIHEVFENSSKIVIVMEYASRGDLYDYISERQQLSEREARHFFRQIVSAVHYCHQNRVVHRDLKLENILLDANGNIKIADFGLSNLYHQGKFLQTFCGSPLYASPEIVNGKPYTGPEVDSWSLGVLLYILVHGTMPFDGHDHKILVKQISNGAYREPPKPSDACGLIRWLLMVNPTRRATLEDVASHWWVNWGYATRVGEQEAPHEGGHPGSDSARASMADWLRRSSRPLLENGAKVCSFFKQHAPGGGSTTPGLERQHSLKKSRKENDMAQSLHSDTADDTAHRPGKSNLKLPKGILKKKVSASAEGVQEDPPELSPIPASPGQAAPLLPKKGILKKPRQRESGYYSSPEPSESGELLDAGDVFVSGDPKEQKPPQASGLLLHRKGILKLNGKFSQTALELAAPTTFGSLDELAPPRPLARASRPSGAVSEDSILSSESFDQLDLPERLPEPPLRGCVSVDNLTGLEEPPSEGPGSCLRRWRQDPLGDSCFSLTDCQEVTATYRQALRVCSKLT
In words: Kinase activity inhibition assay, P81 filter paper binding hot-spot technique (33P-ATP, CHKtide substrate). Format: biochemical. Conditions: final concentration of NUAK2 50 nM; 20 µM CHKtide substrate; incubated 2 hours at room temperature; read-out: IC50 (nM) of Test Compounds of the Present Application against NUAK2. The protocol: (§1) The inhibitory activity of the pyrimidinamine small molecules involved in the present application against NUAK1 and NUAK2 kinases was determined using a kinase activity assay based on the P81 filter paper binding hot-spot technique (Nat Biotechnol. 2011, 29:1039). A brief description is as follows:
(§2) The assay buffer system contained 20 mM Hepes (pH 7.5), 10 mM MgCl2, 1 mM EGTA, 0.01% Brij35 (L23 polyoxyethylene lauryl ether), 0.02 mg/mL BSA (bovine serum albumin), 0.1 mM Na3VO4, 2 mM DTT, and 1% DMSO.
(§3) • 1. A 20 µM substrate solution was prepared with freshly prepared test buffer and CHKtide peptide fragments (Sanchez Y. Science. 1997, 277: 1497-1501) were used as a substrate. • 2. Kinases were added and mixed gently (a final concentration of NUAK1 was 10 nM; and a final concentration of NUAK2 was 50 nM). • 3. Test compounds dissolved in 100% DMSO were each added to the above kinase reaction mixture solution via Acoustic Droplet Ejection (Echo550; nanoliter) and the mixture was incubated for 5 minutes at room temperature. • 4. ^33P-labeled ATP (a ratio of unlabeled ATP to labeled ATP was 25:1 or 2.5:1) was added. • 5. The mixture was incubated for 2 hours at room temperature. • 6. Kinase activity was tested using the P81 filter paper combined with hotspot technology.
(§4) The IC50 values of the test compounds against NUAK1/NUAK2 were calculated according to the above test. For specific results, see Table 1.
(§5) The IC50 values were calculated by using a formula derived from sigmoidal dose-response curve (variable slope):
(§6) Y = Bottom + (Top-Bottom)/(1+10^((LogEC50-X)*Slope, where X is the logarithm of compound concentration, Y is the response (inhibition rate of kinase activity), and Y rises from bottom to top along the sigmoidal curve as the concentration increases. Table 1: IC50 (nM) of Test Compounds of the Present Application against NUAK1/NUAK2

The next assay addresses T2, NUAK1 (Homo sapiens, UniProt O60285).
T2 sequence (O60285 1-661): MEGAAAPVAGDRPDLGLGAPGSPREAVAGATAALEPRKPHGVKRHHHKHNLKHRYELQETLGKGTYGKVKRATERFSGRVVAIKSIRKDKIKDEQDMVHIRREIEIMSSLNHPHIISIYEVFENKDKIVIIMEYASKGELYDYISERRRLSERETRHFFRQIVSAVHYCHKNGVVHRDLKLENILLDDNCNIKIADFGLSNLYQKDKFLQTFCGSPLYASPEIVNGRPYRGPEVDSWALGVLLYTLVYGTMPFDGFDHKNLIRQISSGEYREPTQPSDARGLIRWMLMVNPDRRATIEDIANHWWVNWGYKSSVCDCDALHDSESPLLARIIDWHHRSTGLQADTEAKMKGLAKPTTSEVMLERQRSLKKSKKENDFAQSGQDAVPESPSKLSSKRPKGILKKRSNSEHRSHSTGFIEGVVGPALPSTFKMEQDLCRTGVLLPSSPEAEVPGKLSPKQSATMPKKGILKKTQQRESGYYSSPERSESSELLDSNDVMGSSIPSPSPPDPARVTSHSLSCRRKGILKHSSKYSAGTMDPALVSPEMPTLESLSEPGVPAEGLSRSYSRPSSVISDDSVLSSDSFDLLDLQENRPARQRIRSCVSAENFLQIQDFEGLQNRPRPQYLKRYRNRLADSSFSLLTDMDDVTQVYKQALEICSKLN
The description is as above. It counts as biochemical. The conditions noted are these: final concentration of NUAK1 10 nM; 20 µM CHKtide substrate; incubated 2 hours at room temperature; read-out: IC50 (nM) of Test Compounds of the Present Application against NUAK1. The protocol:
as §1, §2, §3, §4, §5, §6

One may read the IC50 as the concentration that gives 50% inhibition.

Molecules are shown by their SMILES.

As for `CN1CCN(c2ccc(Nc3ncc(Cl)c(Oc4cccc(NC(=O)C5CC5(F)F)c4)n3)cc2)CC1` (stereo not shown) [TDM-181120], the values for the IC50 at NUAK2 and at NUAK1 were 311 nM and 21 nM, respectively.
The corresponding values for `O=C(Nc1cccc(Oc2nc(Nc3cnn(C4CCNCC4)c3)ncc2Cl)c1)C1CC1(F)F` (stereo not shown) [TDM-181127, N-(3-((5-Chloro-2-((1-(piperidin-4-yl)-1H-pyrazol-4-yl)amino)pyrimidin-4-yl)oxy)phenyl)-2,2-difluorocyclopropane-1-carboxamide] are 352 nM and 161 nM.
As for `CN1CCN(c2ccc(Nc3ncc(Cl)c(N(C)c4cccc(NC(=O)[C@@H]5CC5(F)F)c4)n3)cc2)CC1` [TDM-181131, (S)-N-(3-((5-Chloro-2-((4-(4-methylpiperazin-1-yl)phenyl)amino)pyrimidin-4-yl)(methyl)amino)phenyl)-2,2-difluorocyclopropane-1-carboxamide], the values for the IC50 on NUAK2 and at NUAK1 were 635 nM and 81 nM, respectively.
With `COc1cc(N2CCN(C)CC2)ccc1Nc1ncc(Cl)c(Oc2ccccc2NC(=O)C2CC2)n1` [TDM-181132, N-(2-((5-Chloro-2-((2-methoxy-4-(4-methylpiperazin-1-yl)phenyl)amino)pyrimidin-4-yl)oxy)phenyl)cyclopropanecarboxamide], the IC50 on NUAK2 amounted to 37 nM; at NUAK1, 24 nM.
Take `COc1cc(N2CCN(C)CC2)ccc1Nc1ncc(Cl)c(Oc2ccccc2NC(=O)[C@@H]2CC2(F)F)n1` [TDM-181160, (S)-N-(2-((5-Chloro-2-((2-methoxy-4-(4-methylpiperazin-1-yl)phenyl)amino)pyrimidin-4-yl)oxy)phenyl)-2,2-difluorocyclopropane-1-carboxamide]: the IC50 amounted to 13 nM at NUAK2 and 4 nM on NUAK1.

These data come from patent EP4745127A1, “PYRIMIDINAMINE NUAK INHIBITOR AS WELL AS PREPARATION METHOD THEREFOR AND USE THEREOF” (Technoderma Medicines Inc., priority 2023, dated 2025).
